In patent US20160123988A1, “METHOD OF TRACELESS LABELING GLYCOPROTEINS ON SURFACE AND APPLICATION THEREOF” (NATIONAL SUN YAT-SEN UNIVERSITY, priority 2014, published 2016):

Assays:
fetuins = biological target: T1, fetuins (Bos taurus, UniProt P12763); test: Labeling of fetuins by probes, biotinylation, SDS-PAGE and Western blotting with anti-biotin antibody; assay type: biochemical, calf; conditions: probe 40 μM, fetuins 20 μM, 37° C., 48 h; FIG. 3
T1 construct: Fetuin (from fetal calf serum) and RNase B (from bovine pancreas) were purchased from Sigma-Aldrich; purchased Sigma-Aldrich; host or cells: fetal calf serum (natural source)
T1 sequence (P12763 19-359): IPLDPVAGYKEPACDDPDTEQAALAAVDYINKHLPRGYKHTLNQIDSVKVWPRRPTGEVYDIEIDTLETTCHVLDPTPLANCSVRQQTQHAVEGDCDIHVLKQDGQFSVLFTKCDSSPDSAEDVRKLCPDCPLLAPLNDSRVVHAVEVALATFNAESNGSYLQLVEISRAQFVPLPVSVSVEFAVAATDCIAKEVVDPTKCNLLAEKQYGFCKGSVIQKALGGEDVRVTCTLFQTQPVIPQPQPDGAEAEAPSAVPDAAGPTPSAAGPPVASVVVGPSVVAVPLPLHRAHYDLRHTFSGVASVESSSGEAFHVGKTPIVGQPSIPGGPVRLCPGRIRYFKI
Experimental: A solution of fetuins (10 μM) was incubated with BA-tosyl probes 1-3 (50 μM) in PBS buffer (0.1 M, pH 8.0) at 37° C. for 48 h. Then, the unreacted BA-tosyl probes were removed by centrifugal filtration (Amicon Ultra-0.5 mL 10K) at 15,000 rpm, followed by washing five times with PBS buffer (300 μL). The resultant alkyne-tagged fetuins (11.53 μL, 26.28 μg/μL) were collected and treated with azido biotin (20 μL, 1 mM) in PBS buffer (44.47 μL, pH 8.0, 0.1 M). Then, the mixture was treated with tris(carboxyethyl)phosphine (TCEP, 0.1 M, 2 μL) and tris[(1-benzyl-1H-1,2,3-triazol-4-yl)methyl]amine (TBTA, 0.01 M, 20 μL) with gentle shaking. After homogeneous mixing, CuSO4 (0.1 M, 2 μL) was added, and the reaction mixture was shaken at RT for 12 h. The excess reactants were removed by centrifugal filtration at 15,000 rpm, and the biotinylated fetuins were obtained.
To evaluate the specificity of synthetic BA-tosyl probes, BA-tosyl 1-3, aniline-tosyl 7, and BA-alkyne 8 (40 μM) were incubated with fetuins (20 μM), blood glycoproteins carrying triantennary glycan chains with terminal N-acetylneuraminic acids, at 37° C. for 48 h. The unreacted chemical probes were then removed by centrifugal filtration or size-exclusion column chromatography to obtain the alkyne-labeled fetuins. Azido biotin was then used to form biotinylated fetuins via Cu(I)-catalyzed 1,2,3-triazole cycloaddition. […]

RNase B = biological target: T2, RNase B (Bos taurus, UniProt P61823); test: Immobilization of RNase B on functionalized slides, read out with Con A-FITC fluorescence; assay type: biochemical, bovine; conditions: for Con A-FITC signal of RNase B on probe-functionalized slides: slides incubated with RNase B then treated with glycerol, compared to BA-tosyl-treated slides, FIG. 6(b), 6(c); for Con A-FITC intensity after release of BA-tosylate by polyol: RNase B on BA-tosyl slides, glycerol 10%, sorbitol 100 mM, compared to galactose 100 mM, FIG. 6(a)
T2 construct: Fetuin (from fetal calf serum) and RNase B (from bovine pancreas) were purchased from Sigma-Aldrich; purchased Sigma-Aldrich; host or cells: bovine pancreas (natural source)
T2 sequence (P61823 27-150): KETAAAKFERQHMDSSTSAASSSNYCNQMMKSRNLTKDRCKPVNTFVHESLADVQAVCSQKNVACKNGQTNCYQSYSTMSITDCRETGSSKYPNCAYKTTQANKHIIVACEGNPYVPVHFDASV
Experimental: The aforementioned azide-functionalized slide was rinsed twice with sodium phosphate buffer (25 mM, pH 8.0) and immersed in the same buffer (45 mL). To effect the Cu(I)-catalyzed 1,2,3-triazole cycloaddition, BA-tosyl 1 (or compound 7 or 8) was added to the reaction mixture to afford a final concentration of 5 mM and treated with TCEP (2 mM) and TBTA (2 mM). Then, an aqueous solution of CuSO 4 (100 mM) was added to the reaction mixture to give a final concentration of 4 mM, and the mixture was allowed to react at RT. After 12 h, the slide was washed three times with PBS and twice with distilled deionized water (ddH2O) to obtain BA-tosyl 1 (or compound 7 or 8)-functionalized slides.
Fluorescein-labeled lectins (Con A-FITC and WGA-FITC, 10 μM in PBS containing 5 mM CaCl2 and 5 mM MnCl2) were incubated with the glycoprotein microarray at RT for 1 h. Then, the slide was washed three times with PBS containing 10% glycerol and twice with ddH2O. Finally, the slide was dried under warm air and subjected to fluorescence analysis.
To quantitatively evaluate the protein-glycoprotein interactions, the lectin-glycoprotein complexes were analyzed by measuring the fluorescence intensities of the fluorescein tags. The fluorescence signals were directly detected by a NovaRay Microarray Scanner with an FITC filter, and were subsequently analyzed using ArrayVision software.
Glycoproteins in ddH2O containing 20% dimethyl sulfoxide (DMSO) were spotted onto the surface of the functionalized slide. To immobilize glycoproteins on the slides, an AD1500 arrayer (Biodot) was used to print samples of interest onto the functionalized slide with a spot volume of 20 nL under 85% relative humidity at 25° C. The protein sample was allowed to incubate at 25° C. for 12 h, and the glycoprotein solution was then removed by decanting the reaction mixture. The slide was incubated with ddH2O containing 10% glycerol for 30 min, followed by washing twice with the same solution (ddH2O with 10% glycerol). The slide was further treated with 10 mM imidazole solution (Tris buffer, 10 mM NaCl, pH 7.4) for 30 min to block unreacted BA-tosyl groups. The obtained glycoprotein micro-array was then washed three times by PBS (pH 7.4) and was ready for advanced use.
To evaluate the details of the immobilization mechanism, ribonuclease B (RNase B), carrying a single N-glycan chain composed of high mannose isomers, was spotted onto BA-tosyl-functionalized slides and allowed to incubate at 25° C. for 12 h. The slides were then individually treated with three different polyols in phosphate buffered saline (PBS) to competitively release the BA-tosylate. Glycerol (10%), galactose (100 mM), and sorbitol (100 mM) were used. […]

SMILES: C#CCCCOS(=O)(=O)c1cc(C=O)cc(C(=O)Nc2ccccc2)c1 [aniline-tosyl 7]
- Western blot band of biotin-labeled fetuins (labeling of fetuin) (fetuins): much weaker signal
- Con A-FITC signal of RNase B on probe-functionalized slides (RNase B): very low signal intensity
- Con A-FITC signal of RNase B on probe-functionalized slides (RNase B; listed as 7): nearly background-level signals

SMILES: OCC(O)CO [glycerol]
- Con A-FITC intensity after release of BA-tosylate by polyol (RNase B): twice the intensity

SMILES: OC[C@@H](O)[C@@H](O)[C@H](O)[C@@H](O)CO [sorbitol]
- Con A-FITC intensity after release of BA-tosylate by polyol (RNase B): twice the intensity
